# Source: PubChem BioAssay AID1259407 (Chemical Carcinogenesis Research Information System (CCRIS), 2018)
# Calls of active or inactive are those of the source. How the calls were made is not given here.
# Test system: CCRIS mutagenicity, Ames/micronucleus/aberration tests
# Assay: CCRIS mutagenicity studies
# [1] = Test System: AMES SALMONELLA TYPHIMURIUM, Strain/Indicator: TA98, Metabolic Activation: NONE, Method: PREINCUBATION
# [2] = Test System: AMES SALMONELLA TYPHIMURIUM, Strain/Indicator: TA100, Metabolic Activation: NONE, Method: PREINCUBATION
# [3] = Test System: AMES SALMONELLA TYPHIMURIUM, Strain/Indicator: TA98, Metabolic Activation: RAT, LIVER, S-9, KANECHLOR 500, Method: PREINCUBATION
# [4] = Test System: AMES SALMONELLA TYPHIMURIUM, Strain/Indicator: TA100, Metabolic Activation: RAT, LIVER, S-9, KANECHLOR 500, Method: PREINCUBATION
# [5] = Test System: AMES SALMONELLA TYPHIMURIUM, Strain/Indicator: TA100, Metabolic Activation: NONE, Method: STANDARD PLATE
structure (smiles),measurement,setting,value
COc1ccc2c(c1O)C(=O)c1ccccc1C2=O,mutagenic call,[1],inactive; negative
same,mutagenic call,"Test System: AMES SALMONELLA TYPHIMURIUM, Strain/Indicator: TA98, Metabolic Activation: RAT, LIVER, S-9, PCB, Method: PREINCUBATION",inactive; negative
same,mutagenic call,[2],inactive; negative
same,mutagenic call,"Test System: AMES SALMONELLA TYPHIMURIUM, Strain/Indicator: TA100, Metabolic Activation: RAT, LIVER, S-9, PCB, Method: PREINCUBATION",inactive; negative
ONc1ccc(I)cc1,mutagenic call,"Test System: E. COLI, Strain/Indicator: WP2 UVRA, Metabolic Activation: NONE, Method: FLUCTUATION TEST",inactive; negative
CN(C)CCOc1ccc(/C(=C(/CCCl)c2ccccc2)c2ccccc2)cc1,mutagenic call,"End Point: IN VITRO CHROMOSOMAL ABERRATIONS, Test System: SYRIAN HAMSTER EMBRYO (SHE) CELLS, Metabolic Activation: NONE",active; positive (ploidy changes)
O=C(O)c1cc([N+](=O)[O-])cc([N+](=O)[O-])c1,mutagenic call,[1],active; positive
same,mutagenic call,[3],active; positive
same,mutagenic call,[2],active; positive
same,mutagenic call,[4],active; positive
O=C(O)c1ccc(Cl)c([N+](=O)[O-])c1,mutagenic call,[1],active; positive
same,mutagenic call,[3],inactive; negative
same,mutagenic call,[2],active; positive
same,mutagenic call,[4],active; positive
c1ccc(Cc2ccccc2OCC2CO2)cc1 (stereo not drawn),mutagenic call,[5],active; positive
same,mutagenic call,"Test System: AMES SALMONELLA TYPHIMURIUM, Strain/Indicator: TA1535, Metabolic Activation: NONE, Method: STANDARD PLATE",active; positive
COc1cccc2c1C(=O)c1c(O)c3c(c(O)c1C2=O)CC(O)(C(=O)CO)CC3OC1CC(N2CCOCC2C#N)C(O)C(C)O1 (stereo not drawn),mutagenic call,"Test System: AMES SALMONELLA TYPHIMURIUM, Strain/Indicator: TA100, Metabolic Activation: RAT, LIVER, S-9, AROCLOR 1254",inactive; negative
same,mutagenic call,"Test System: CHINESE HAMSTER V-79, Strain/Indicator: V-79/8-AZAGUANINE, Metabolic Activation: NONE",active; positive
same,mutagenic call,"Test System: UDS RAT HEPATOCYTES, Strain/Indicator: THY INCORP, Metabolic Activation: NONE, Method: AUTOMATIC COLONY COUNTER",active; positive
Oc1ccc2c(ccc3[nH]c4ccc5ccccc5c4c32)c1,mutagenic call,"Test System: AMES SALMONELLA TYPHIMURIUM, Strain/Indicator: TA98, Metabolic Activation: NONE, Method: STANDARD PLATE",inactive; negative
same,mutagenic call,"Test System: AMES SALMONELLA TYPHIMURIUM, Strain/Indicator: TA98, Metabolic Activation: RAT, LIVER, S-9, 3-METHYLCHOLANTHRENE, Method: STANDARD PLATE",active; positive
same,mutagenic call,[5],inactive; negative
same,mutagenic call,"Test System: AMES SALMONELLA TYPHIMURIUM, Strain/Indicator: TA100, Metabolic Activation: RAT, LIVER, S-9, 3-METHYLCHOLANTHRENE, Method: STANDARD PLATE",active; positive
same,mutagenic call,"Test System: AMES SALMONELLA TYPHIMURIUM, Strain/Indicator: TM677, Metabolic Activation: NONE, Method: PREINCUBATION",inactive; negative
same,mutagenic call,"Test System: AMES SALMONELLA TYPHIMURIUM, Strain/Indicator: TM677, Metabolic Activation: RAT, LIVER, S-9, 3-METHYLCHOLANTHRENE (1%), Method: PREINCUBATION",active; positive
same,mutagenic call,"Test System: AMES SALMONELLA TYPHIMURIUM, Strain/Indicator: TM677, Metabolic Activation: RAT, LIVER, S-9, 3-METHYLCHOLANTHRENE (10%), Method: PREINCUBATION",active; positive
same,mutagenic call,"Test System: AMES SALMONELLA TYPHIMURIUM, Strain/Indicator: TM677, Metabolic Activation: RAT, LIVER, S-9, AROCLOR 1254 (10%), Method: PREINCUBATION",active; positive
O=S(=O)(O)c1ccc2ccc3cccc4ccc1c2c34,mutagenic call,"Test System: AMES SALMONELLA TYPHIMURIUM, Strain/Indicator: TA98, Metabolic Activation: RAT, LIVER, S-9, AROCLOR 1254, Method: STANDARD PLATE",inactive; negative
same,mutagenic call,"Test System: AMES SALMONELLA TYPHIMURIUM, Strain/Indicator: TA100, Metabolic Activation: RAT, LIVER, S-9, AROCLOR 1254, Method: STANDARD PLATE",active; positive
CN(N)C=O,mutagenic call,"Test System: AMES SALMONELLA TYPHIMURIUM, Strain/Indicator: TA1535, Metabolic Activation: NONE, Method: PREINCUBATION",inactive; negative
same,mutagenic call,"Test System: AMES SALMONELLA TYPHIMURIUM, Strain/Indicator: TA1535, Metabolic Activation: RAT, LIVER, S-9, AROCLOR 1254, Method: PREINCUBATION",inactive; negative
same,mutagenic call,"Test System: AMES SALMONELLA TYPHIMURIUM, Strain/Indicator: TA1537, Metabolic Activation: NONE, Method: PREINCUBATION",inactive; negative
same,mutagenic call,"Test System: AMES SALMONELLA TYPHIMURIUM, Strain/Indicator: TA1537, Metabolic Activation: RAT, LIVER, S-9, AROCLOR 1254, Method: PREINCUBATION",inactive; negative
